The record followed here is ChEMBL document CHEMBL5729301, “ASK1 inhibitor compounds and uses thereof” (2022).

The test addresses T1, Mitogen-activated protein kinase kinase kinase 5 (Homo sapiens, UniProt Q99683).
T1 sequence (Q99683 whole entry): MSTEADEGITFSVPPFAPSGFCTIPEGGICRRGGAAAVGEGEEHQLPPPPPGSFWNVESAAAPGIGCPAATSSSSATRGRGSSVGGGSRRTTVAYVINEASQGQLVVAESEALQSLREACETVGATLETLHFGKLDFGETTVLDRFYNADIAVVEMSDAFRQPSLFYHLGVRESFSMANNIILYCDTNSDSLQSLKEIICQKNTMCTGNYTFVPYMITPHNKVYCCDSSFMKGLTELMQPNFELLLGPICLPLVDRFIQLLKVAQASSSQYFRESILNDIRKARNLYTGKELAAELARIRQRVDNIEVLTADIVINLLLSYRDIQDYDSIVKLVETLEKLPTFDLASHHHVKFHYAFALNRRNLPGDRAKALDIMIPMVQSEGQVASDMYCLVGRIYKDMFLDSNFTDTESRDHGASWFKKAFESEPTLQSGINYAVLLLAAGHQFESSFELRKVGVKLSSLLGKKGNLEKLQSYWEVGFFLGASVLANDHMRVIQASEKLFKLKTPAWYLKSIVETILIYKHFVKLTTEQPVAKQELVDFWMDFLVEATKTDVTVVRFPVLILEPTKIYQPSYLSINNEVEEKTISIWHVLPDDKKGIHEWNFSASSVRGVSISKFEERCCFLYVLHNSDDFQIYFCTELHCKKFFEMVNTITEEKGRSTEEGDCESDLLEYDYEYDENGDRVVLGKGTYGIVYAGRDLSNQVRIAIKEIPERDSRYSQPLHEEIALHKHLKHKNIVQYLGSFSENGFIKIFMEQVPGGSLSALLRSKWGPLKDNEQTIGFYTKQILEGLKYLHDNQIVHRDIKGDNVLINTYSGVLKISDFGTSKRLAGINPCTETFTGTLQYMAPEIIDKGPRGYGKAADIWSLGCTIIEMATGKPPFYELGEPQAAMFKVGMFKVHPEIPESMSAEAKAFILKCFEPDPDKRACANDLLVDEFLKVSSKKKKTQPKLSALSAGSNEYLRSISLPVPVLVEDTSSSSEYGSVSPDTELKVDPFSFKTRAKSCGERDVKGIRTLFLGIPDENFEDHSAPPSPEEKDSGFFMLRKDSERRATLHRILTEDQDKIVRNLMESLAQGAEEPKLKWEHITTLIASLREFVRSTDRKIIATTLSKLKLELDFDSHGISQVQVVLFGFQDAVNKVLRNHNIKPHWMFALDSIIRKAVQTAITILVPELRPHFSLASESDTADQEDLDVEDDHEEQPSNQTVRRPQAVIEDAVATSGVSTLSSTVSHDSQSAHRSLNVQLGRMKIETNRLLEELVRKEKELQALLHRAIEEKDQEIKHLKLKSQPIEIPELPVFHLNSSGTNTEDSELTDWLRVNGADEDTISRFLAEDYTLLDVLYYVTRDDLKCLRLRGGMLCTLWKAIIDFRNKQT
The test is described as follows: Kinase Assay: The ASK1 enzymatic assay was run following Promega ASK1 Kinase Enzyme System (Cat #V3881). The kit provides the protocol, enzymes and all reagents necessary to run an assay.The compounds, enzyme, substrate and ATP were diluted in provided assay buffer. The final concentration of the enzyme was 50 nM, substrate (Myelin basic protein) 1 μg/mL and ATP 10 μM. The compound and the enzyme were pre-incubated in a 384-well white solid bottom plate (Greiner, Cat #784075) for 10 minutes. After incubation, the substrate and ATP were added and incubated for an additional 60 minutes. After 60 minutes, ADP-Glo™ was added and the plate was incubated for another 40 minutes. After 40 minutes, Kinase Detection Reagent was added and the plate was incubated for 45 minutes. After 45 minutes, the plate was read on a Perkin Elmer EnVision using luminescence read (0.5 seconds/well).

For orientation: IC50 means the concentration that gives 50% inhibition. A high value points to weaker potency in that assay. `CC(=O)Nc1cccc(-c2cc3c(s2)C(=O)N(c2cccc(-c4nncn4C4CC4)n2)C3)c1` displayed an IC50 of less than 1000 nM.
